Assay results as given in patent US10851102B2, “Imidazole and triazole containing bicyclic compounds as JAK inhibitors” (THERAVANCE BIOPHARMA R&D IP, LLC, priority 2019, dated 2020).

Columns and labels:
Tyk2 = Tyk2 (Homo sapiens (Human), UniProt P29597); experiment: Biochemical JAK and Tyk2 kinase assays (LanthaScreen): Tyk2; details: 1 h pre-incubation, ATP at Km; pIC50 converted to pKi by Cheng-Prusoff
Description: (§1) Assay 1: Biochemical JAK and Tyk2 Kinase Assays
(§2) A panel of four LanthaScreen JAK biochemical assays (JAK1, 2, 3 and Tyk2) were carried in a common kinase reaction buffer (50 mM HEPES, pH 7.5, 0.01% Brij-35, 10 mM MgCl2, and 1 mM EGTA). Recombinant GST-tagged JAK enzymes and a GFP-tagged STAT1 peptide substrate were obtained from Life Technologies.
(§3) Serially or discretely diluted compounds were pre-incubated with each of the four JAK enzymes and the substrate in white 384-well microplates (Corning) at ambient temperature for 1 h. ATP was subsequently added to initiate the kinase reactions in 10 μL total volume, with 1% DMSO. […] Kinase reactions were allowed to proceed for 1 hour at ambient temperature before a 10 μL preparation of EDTA (10 mM final concentration) and Tb-anti-pSTAT1 (pTyr701) antibody (Life Technologies, 2 nM final concentration) in TR-FRET dilution buffer (Life Technologies) was added. The plates were allowed to incubate at ambient temperature for 1 h before being read on the EnVision reader (Perkin Elmer). Emission ratio signals (520 nm/495 nm) were recorded and utilized to calculate the percent inhibition values based on DMSO and background controls.
(§4) For dose-response analysis, percent inhibition data were plotted vs. compound concentrations, and IC50 values were determined from a 4-parameter robust fit model with the Prism software (GraphPad Software). Results were expressed as pIC50 (negative logarithm of IC50) and subsequently converted to pKi (negative logarithm of dissociation constant, Ki) using the Cheng-Prusoff equation.

JAK1 = JAK1 (Homo sapiens (Human), UniProt P23458); experiment: Biochemical JAK and Tyk2 kinase assays (LanthaScreen): JAK1; details: 1 h pre-incubation, ATP at Km; pIC50 converted to pKi by Cheng-Prusoff
Procedure, shortened: (§5)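 TR-FRET (520/495 nm ratio) detection of STAT1 pTyr701 phosphorylation on a GFP-STAT1 peptide by GST-tagged JAK kinase. Reactions ran 1 h at room temperature with 1% DMSO after 1 h compound–enzyme–substrate preincubation. pIC50 values converted to pKi via Cheng-Prusoff.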

[1] = tested on: IL-2 stimulated pSTAT5 in Tall-1 T cells (JAK3); experiment: Cellular JAK3 potency assay: inhibition of IL-2 stimulated pSTAT5 in Tall-1 T cells; format: cell-based; details: IL-2 300 ng/ml, pSTAT5 AlphaLisa, Tall-1 human T cell line; read-out: Tall-1 (pIC50) (converted)
Procedure, shortened: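 Human Tall-1 T cells (45,000/well) preincubated with compound 1 h at 37 °C, then stimulated with IL-2 (final 300 ng/ml) for 30 min. Lysates read for pSTAT5 (Tyr694/699) by AlphaLISA luminescence. IC50 from signal-versus-concentration curves, reported as pIC50 (mean±SD).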

[2] = Colon and plasma mouse pharmacokinetics; format: in vivo; details: ratio of colon AUC to plasma AUC, male Balb/c mice, 10 mg/kg PO; for Kp: mouse
Description: Assay 6: Colon and Plasma Mouse Pharmacokinetics
6 male Balb/c mice were administered 10 mg/kg of compound in 1% HPMC+0.1% Tween-80 by PO administration. At 0.5, 2 and 6 hours after dose administration, animals were anesthetized, and terminal blood samples were collected by cardiac puncture, followed by collection of colon contents and colon tissue.
Blood samples were collected into K2EDTA and stored on wet ice until processed to plasma by centrifugation (12,000 rpm at 4° C.). Plasma samples were transferred to cluster tubes and placed on dry ice prior to freezer storage. The colon contents from each animal were collected at each terminal blood collection time point. The colon tissues were flushed with saline and patted dry. The colon and colon content tissues were homogenized using sterile water containing 0.1% formic acid 9:1 (water:tissue, v/w). The homogenized tissues and colon contents were transferred to cluster tubes and placed on dry ice prior to freezer storage. All samples were analyzed using LC/MS/MS against analytical standards.
The composite pharmacokinetic parameters of the compounds were determined by non-compartmental analysis using Phoenix WinNonlin Version 6 (Certara, St. Louis, Mo.) and using mean values from 2 animals/time point. For plasma concentrations below the quantification limit (BQL), the lowest concentration measurable or the BLOQ (below limit of quantification) was used.
A colon to plasma ratio was determined as the ratio of the colon AUC to the plasma AUC.

JAK2 = JAK2 (Homo sapiens (Human), UniProt O60674); experiment: Biochemical JAK and Tyk2 kinase assays (LanthaScreen): JAK2; details: 1 h pre-incubation, ATP at Km, pIC50 converted to pKi by Cheng-Prusoff; for Ki: read-out: JAK 2 (pKi) (converted)
Description: as §1, §2, §3, §4

Caco-2 cell monolayers = experiment: Caco-2 permeation assay; format: in vitro ADME, human; details: for Caco Kp 10^−6 cm/sec: 5 μM, A to B, + Verapamil 25 μM, 120 minutes
Source text: Assay 5: Caco-2 Permeation Assay

[3] = tested on: IL-2 stimulated pSTAT5 in CD4+ T cells isolated from murine splenocytes (JAK3); experiment: Inhibition of IL-2 stimulated pSTAT5 in CD4+ T cells isolated from murine splenocytes; format: cell-based; details: Mus musculus, IL-2 7 ng/ml, read-out: pIC50, inhibition of IL-2 stimulated pSTAT5 (converted)
Description: Assay 3: Inhibition of IL-2 Stimulated pSTAT5 in CD4+ T Cells Isolated from Murine Splenocytes
The potency of test compounds for inhibition of interleukin-2 (IL-2) stimulated STATS phosphorylation was measured in the CD4+ T cells isolated from murine splenocytes using AlphaLisa. Because IL-2 signals through JAK3, this assay provides a measure of JAK3 cellular potency in mouse.
Phosphorylated STATS was measured via the AlphaLISA SureFire Ultra pSTAT5 (Tyr694/699) kit (PerkinElmer).
CD4+ T cells were isolated from murine splenocytes via negative selection on a magnetic column (Miltnyi Biotec) and re-suspended in assay media (phenol red-free DMEM (Life Technologies) supplemented with 10% FBS (ATCC)). Cells were seeded at 50,000 cells/well in assay media (2 μL/well). Compounds were serially diluted in DMSO and diluted to 2× final concentration in assay media. Compound was added (4 μl/well) and the cells incubated at 37° C., 5% CO2 for 1 hour, followed by the addition of IL-2 (R&D Systems; final concentration 7 ng/ml) in pre-warmed assay media (2 μL) for 30 minutes. After cytokine stimulation, cells were lysed with 2 μl of 5× AlphaLisa Lysis Buffer (PerkinElmer). The lysate was shaken at 900 rpm for 10 minutes at room temperature (RT). Phosphorylated STATS was measured via the pSTAT5 AlphaLisa kit (PerkinElmer). Freshly prepared acceptor bead mixture was dispensed onto lysate (5 ul) under green filtered <100 lux light. Plates were shaken at 900 rpm for 2 mins, briefly spun down, and incubated for 2 hrs at RT in the dark. Donor beads were dispensed (5 μl) under green filtered <100 lux light. Plates were shaken at 900 rpm for 2 mins, briefly spun down, and incubated overnight at RT in the dark. Luminescence was measured with excitation at 689 nm and emission at 570 nm using an EnVision plate reader (PerkinElmer) under green filtered <100 lux light.
To determine the inhibitory potency of test compounds in response to IL-2, the average emission intensity of beads bound to pSTATS was measured in primary CD4+ T cells isolated from murine splenocytes. IC50 values were determined from analysis of the inhibition curves of signal intensity vs compound concentration. Data are expressed as pIC50 (negative decadic logarithm IC50) values (mean±standard deviation).

JAK3 = JAK3 (Homo sapiens (Human), UniProt P52333); experiment: Biochemical JAK and Tyk2 kinase assays (LanthaScreen): JAK3; details: for JAK 3 (pKi) / Ki: 1 h pre-incubation, ATP at Km, pIC50 converted to pKi by Cheng-Prusoff; for JAK3 (pKi)-JAK1 (pKi): difference of pKi values, selectivity JAK3 over JAK1; for Ki: read-out: JAK 3 (pKi) (converted)
Procedure, shortened: as §5

Sequence of JAK2 (O60674 whole entry): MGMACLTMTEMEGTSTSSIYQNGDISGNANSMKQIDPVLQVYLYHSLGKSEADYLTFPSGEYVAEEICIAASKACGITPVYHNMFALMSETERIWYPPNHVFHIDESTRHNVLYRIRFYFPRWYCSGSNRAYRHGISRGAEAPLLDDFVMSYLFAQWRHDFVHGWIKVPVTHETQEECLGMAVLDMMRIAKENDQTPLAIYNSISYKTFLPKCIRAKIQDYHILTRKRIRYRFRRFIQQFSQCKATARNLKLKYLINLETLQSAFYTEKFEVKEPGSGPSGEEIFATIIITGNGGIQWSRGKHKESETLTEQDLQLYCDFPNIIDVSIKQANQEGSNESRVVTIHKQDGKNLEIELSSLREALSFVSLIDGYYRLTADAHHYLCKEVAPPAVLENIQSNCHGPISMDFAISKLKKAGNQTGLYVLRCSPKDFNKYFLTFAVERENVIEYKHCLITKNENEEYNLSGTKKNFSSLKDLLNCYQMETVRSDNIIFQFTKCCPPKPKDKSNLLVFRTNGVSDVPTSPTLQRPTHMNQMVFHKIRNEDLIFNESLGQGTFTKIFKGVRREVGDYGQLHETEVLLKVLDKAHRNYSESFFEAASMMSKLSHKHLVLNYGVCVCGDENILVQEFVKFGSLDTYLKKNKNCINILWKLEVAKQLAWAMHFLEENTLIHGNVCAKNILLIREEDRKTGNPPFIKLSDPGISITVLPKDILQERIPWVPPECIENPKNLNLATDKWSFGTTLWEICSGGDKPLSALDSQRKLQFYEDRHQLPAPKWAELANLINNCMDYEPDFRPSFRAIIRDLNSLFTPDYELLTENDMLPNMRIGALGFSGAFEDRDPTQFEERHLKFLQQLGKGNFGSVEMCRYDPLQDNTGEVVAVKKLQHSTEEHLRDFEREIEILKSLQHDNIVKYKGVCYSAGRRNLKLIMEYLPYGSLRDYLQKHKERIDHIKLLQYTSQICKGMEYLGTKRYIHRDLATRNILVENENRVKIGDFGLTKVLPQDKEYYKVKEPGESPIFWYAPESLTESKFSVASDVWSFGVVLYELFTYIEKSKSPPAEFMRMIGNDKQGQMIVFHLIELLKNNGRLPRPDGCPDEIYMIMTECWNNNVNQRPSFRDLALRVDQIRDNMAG
Sequence of JAK1 (P23458 whole entry): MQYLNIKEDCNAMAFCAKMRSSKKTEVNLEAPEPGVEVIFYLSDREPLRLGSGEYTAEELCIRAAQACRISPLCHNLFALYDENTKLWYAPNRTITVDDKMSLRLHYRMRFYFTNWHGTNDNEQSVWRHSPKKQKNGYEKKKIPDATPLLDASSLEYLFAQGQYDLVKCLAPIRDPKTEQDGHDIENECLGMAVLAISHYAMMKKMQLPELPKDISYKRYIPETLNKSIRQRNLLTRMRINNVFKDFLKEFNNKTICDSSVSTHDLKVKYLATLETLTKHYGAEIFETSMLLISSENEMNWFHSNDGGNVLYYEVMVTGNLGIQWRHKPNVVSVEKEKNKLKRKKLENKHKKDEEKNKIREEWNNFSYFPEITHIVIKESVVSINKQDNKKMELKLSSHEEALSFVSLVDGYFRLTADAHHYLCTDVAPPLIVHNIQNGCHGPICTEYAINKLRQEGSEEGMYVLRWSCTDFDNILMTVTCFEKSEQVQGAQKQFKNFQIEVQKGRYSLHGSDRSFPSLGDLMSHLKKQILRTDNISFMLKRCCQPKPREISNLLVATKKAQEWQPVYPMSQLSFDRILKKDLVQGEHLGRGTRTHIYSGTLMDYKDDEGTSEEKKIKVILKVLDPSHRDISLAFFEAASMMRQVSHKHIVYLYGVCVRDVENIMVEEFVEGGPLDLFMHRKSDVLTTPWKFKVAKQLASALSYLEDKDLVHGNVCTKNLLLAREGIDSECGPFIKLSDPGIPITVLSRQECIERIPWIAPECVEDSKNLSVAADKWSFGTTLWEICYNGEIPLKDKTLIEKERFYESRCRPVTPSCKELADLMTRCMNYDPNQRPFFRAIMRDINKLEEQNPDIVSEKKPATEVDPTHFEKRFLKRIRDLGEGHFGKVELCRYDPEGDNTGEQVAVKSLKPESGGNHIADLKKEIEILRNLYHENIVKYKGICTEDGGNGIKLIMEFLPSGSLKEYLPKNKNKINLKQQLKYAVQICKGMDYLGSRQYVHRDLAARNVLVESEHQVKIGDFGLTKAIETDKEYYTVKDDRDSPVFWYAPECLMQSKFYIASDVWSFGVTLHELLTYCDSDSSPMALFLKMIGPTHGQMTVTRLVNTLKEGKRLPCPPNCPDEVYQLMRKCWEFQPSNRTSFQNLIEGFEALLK
Sequence of JAK3 (P52333 whole entry): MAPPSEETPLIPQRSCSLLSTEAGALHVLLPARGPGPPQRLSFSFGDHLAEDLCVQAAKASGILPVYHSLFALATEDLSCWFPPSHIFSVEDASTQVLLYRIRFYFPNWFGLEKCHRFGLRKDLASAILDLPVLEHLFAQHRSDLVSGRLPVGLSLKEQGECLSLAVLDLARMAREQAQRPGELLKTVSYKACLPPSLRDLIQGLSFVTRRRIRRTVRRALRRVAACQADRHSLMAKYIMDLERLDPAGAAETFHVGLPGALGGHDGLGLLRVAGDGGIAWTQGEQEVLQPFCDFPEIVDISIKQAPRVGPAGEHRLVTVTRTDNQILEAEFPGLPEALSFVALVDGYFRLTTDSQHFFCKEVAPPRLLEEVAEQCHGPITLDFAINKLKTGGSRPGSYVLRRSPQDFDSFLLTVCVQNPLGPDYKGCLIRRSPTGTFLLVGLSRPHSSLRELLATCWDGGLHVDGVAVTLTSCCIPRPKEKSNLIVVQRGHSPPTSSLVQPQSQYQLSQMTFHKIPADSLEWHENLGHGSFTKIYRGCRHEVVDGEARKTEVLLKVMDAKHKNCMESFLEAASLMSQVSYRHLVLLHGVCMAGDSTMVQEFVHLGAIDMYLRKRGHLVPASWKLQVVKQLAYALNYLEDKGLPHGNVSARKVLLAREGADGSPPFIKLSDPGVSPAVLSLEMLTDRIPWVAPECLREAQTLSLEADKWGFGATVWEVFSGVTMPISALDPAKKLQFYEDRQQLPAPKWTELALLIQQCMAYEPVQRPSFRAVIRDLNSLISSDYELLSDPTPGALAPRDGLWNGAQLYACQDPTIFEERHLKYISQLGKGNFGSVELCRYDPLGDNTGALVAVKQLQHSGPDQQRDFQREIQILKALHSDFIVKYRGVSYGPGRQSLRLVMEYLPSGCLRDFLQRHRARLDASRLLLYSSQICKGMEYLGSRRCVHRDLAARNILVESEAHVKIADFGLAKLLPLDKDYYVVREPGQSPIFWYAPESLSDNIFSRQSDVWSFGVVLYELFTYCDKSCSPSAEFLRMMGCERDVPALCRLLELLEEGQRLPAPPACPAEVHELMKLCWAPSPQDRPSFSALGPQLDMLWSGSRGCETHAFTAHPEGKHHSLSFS
Sequence of Tyk2 (P29597 whole entry): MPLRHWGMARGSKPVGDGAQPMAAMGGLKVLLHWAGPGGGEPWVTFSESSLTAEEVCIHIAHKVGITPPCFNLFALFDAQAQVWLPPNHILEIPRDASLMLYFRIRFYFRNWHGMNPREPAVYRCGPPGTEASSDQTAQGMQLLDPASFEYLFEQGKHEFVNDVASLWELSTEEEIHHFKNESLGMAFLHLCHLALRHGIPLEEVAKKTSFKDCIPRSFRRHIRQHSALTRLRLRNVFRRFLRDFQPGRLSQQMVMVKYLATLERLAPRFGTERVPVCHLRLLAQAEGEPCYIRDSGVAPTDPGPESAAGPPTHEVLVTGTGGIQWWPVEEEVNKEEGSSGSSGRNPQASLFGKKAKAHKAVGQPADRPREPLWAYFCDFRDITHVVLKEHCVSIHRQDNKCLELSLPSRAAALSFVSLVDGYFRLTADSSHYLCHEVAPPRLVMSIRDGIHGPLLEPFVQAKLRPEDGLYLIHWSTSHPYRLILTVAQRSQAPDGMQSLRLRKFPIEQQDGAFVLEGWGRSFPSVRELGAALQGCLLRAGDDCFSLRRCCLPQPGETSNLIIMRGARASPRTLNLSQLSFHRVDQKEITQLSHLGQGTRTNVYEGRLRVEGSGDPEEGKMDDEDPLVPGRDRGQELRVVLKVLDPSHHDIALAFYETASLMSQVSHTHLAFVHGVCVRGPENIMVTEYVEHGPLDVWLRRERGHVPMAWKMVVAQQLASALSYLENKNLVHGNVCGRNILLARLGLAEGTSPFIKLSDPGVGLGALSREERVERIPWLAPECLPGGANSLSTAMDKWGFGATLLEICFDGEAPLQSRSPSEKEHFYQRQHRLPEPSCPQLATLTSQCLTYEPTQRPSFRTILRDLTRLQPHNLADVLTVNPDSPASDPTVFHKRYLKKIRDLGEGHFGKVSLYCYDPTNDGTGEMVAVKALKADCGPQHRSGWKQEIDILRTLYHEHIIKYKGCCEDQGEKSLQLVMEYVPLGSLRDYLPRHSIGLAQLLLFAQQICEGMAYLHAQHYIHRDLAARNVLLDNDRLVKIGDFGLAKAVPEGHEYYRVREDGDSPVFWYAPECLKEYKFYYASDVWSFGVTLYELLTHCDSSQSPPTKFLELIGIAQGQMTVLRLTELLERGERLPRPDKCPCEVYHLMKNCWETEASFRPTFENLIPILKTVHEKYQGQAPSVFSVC

Row | SMILES | Tyk 2 (pKi) (Tyk2) | JAK 1 (pKi) (JAK1) | IC50 [1] [nM] | Kp [2] | JAK 2 (pKi) (JAK2) | Caco Kp 10^−6 cm/sec (Caco-2 cell monolayers) | IC50 [3] [nM] | JAK 3 (pKi) (JAK3) | JAK3 (pKi)-JAK1 (pKi) (JAK3) | Ki (JAK1) [nM] | Ki (JAK2) [nM] | Ki (JAK3) [nM] | colon to plasma ratio [2] | Kp value (Caco-2 cell monolayers; A to B + Verapamil, unit not given, thresholds in same block in 10^−6 cm/sec)
1 | CCc1cc(O)c(F)cc1-c1cc(OCC2CN(C(=O)/C=C/CN(C)C)C2)c2cncn2c1 [Example 24] | E (E represents a pKi value of 7 or below (Ki of 100 nM or above)) | E (E represents a pKi value of 7 or below (Ki of 100 nM or above)) | 31.6 to 200 | > 200 | E (E represents a pKi value of 7 or below (Ki of 100 nM or above)) | A (A represents a value below 5×10^−6 cm/sec) | < 1000 | A (A represents a pKi value≥10 (Ki≤0.1 nM)) | A (A represents a value of 3 or above) | – | – | – | – | –
2 | C=CC(=O)N1CCC[C@H](Oc2cc(-c3cc(F)c(O)cc3CC)cn3cncc23)C1 [Example 16] | E (E represents a pKi value of 7 or below (Ki of 100 nM or above)) | – | 31.6 to 200 | > 200 | – | C (C represents a value between 10×10^−6 and 25×10^−6 cm/sec) | – | – | B (B represents a value of 2.3 to 3) | 10 to 100 | 10 to 100 | 0.1 to 1 | – | –
3 | C=CC(=O)N1C[C@H](Nc2ncnc3[nH]ccc23)CC[C@@H]1C [PF-06651600, 2-propen-1-one, 1-[(2S,5R)-2-methyl-5-(7H-pyrrolo[2,3-d]pyrimidin-4-ylamino)-1-piperidinyl], reference compound] | – | – | – | – | – | – | – | – | – | – | – | – | 2.8 | 25
4 | C=CC(=O)N1CC[C@@H](Oc2cc(-c3ccc(O)cc3)cn3cncc23)C[C@H]1C [Example 15, 1-((2R,4R)-4-((6-(4-hydroxyphenyl)imidazo[1,5-a]pyridin-8-yl)oxy)-2-methylpiperidin-1-yl)prop-2-en-1-one] | E (E represents a pKi value of 7 or below (Ki of 100 nM or above)) | E (E represents a pKi value of 7 or below (Ki of 100 nM or above)) | ≤ 31.6 | > 30 | – | – | < 1000 | A (A represents a pKi value≥10 (Ki≤0.1 nM)) | A (A represents a value of 3 or above) | – | 10 to 100 | – | – | –
5 | C=CC(=O)N1CC(COc2cc(-c3ccc(O)cc3)cn3cncc23)C1 [Example 11, 1-(3-(((6-(4-hydroxyphenyl)imidazo[1,5-a]pyridin-8-yl)oxy)methyl)azetidin-1-yl)prop-2-en-1-one] | E (E represents a pKi value of 7 or below (Ki of 100 nM or above)) | E (E represents a pKi value of 7 or below (Ki of 100 nM or above)) | 31.6 to 200 | – | E (E represents a pKi value of 7 or below (Ki of 100 nM or above)) | A (A represents a value below 5×10^−6 cm/sec) | < 1000 | – | A (A represents a value of 3 or above) | – | – | 0.1 to 1 | – | –
6 | C=CC(=O)N1CCC(Oc2cc(-c3ccc(O)cc3)cn3cncc23)CC1 [Example 30] | E (E represents a pKi value of 7 or below (Ki of 100 nM or above)) | E (E represents a pKi value of 7 or below (Ki of 100 nM or above)) | 31.6 to 200 | > 8 | E (E represents a pKi value of 7 or below (Ki of 100 nM or above)) | C (C represents a value between 10×10^−6 and 25×10^−6 cm/sec) | – | A (A represents a pKi value≥10 (Ki≤0.1 nM)) | A (A represents a value of 3 or above) | – | – | – | – | –
7 | C=CC(=O)N1CC(COc2cc(-c3cc(F)c(O)c(Cl)c3)cn3cncc23)C1 [Example 31] | E (E represents a pKi value of 7 or below (Ki of 100 nM or above)) | E (E represents a pKi value of 7 or below (Ki of 100 nM or above)) | 31.6 to 200 | – | E (E represents a pKi value of 7 or below (Ki of 100 nM or above)) | A (A represents a value below 5×10^−6 cm/sec) | < 1000 | A (A represents a pKi value≥10 (Ki≤0.1 nM)) | A (A represents a value of 3 or above) | – | – | – | – | –
8 | C=CC(=O)N1CC(COc2cc(-c3cc(Cl)c(O)c(OC)c3)cn3cncc23)C1 [Example 9, 1-(3-(((6-(3-chloro-4-hydroxy-5-methoxyphenyl)imidazo[1,5-a]pyridin-8-yl)oxy)methyl)azetidin-1-yl)prop-2-en-1-one] | E (E represents a pKi value of 7 or below (Ki of 100 nM or above)) | E (E represents a pKi value of 7 or below (Ki of 100 nM or above)) | 31.6 to 200 | – | E (E represents a pKi value of 7 or below (Ki of 100 nM or above)) | A (A represents a value below 5×10^−6 cm/sec) | < 1000 | – | A (A represents a value of 3 or above) | – | – | 0.1 to 1 | – | –
